According to patent publication US20030143215A1, “Carbonyl stress-ameliorating agents” (priority 1999, published 2003):

Key:
[1] = in vitro; Miyata T., J. Am. Soc. Nephrol. 11: 1719-1725, 2000; cited from earlier work
[2] = Incubation of sera with thiol compounds, production of AGE; conditions: sera from a normal person and patients with diabetes mellitus; a long period was required
Text: As described above, a decrease in concentration of redox coenzymes, such as GSH and NAD (P), is suspected to be the cause of AGE formation because of a decreased elimination of carbonyl compounds. […] Based on this theory, the present inventors tried to directly administer thiol compounds, such as GSH and cystein.

[3] = 400 μM methylglyoxal, 0-8 mM glutathione, PBS(-) pH7.4, 37° C., 0-24 hours; FIG. 1
Description: The solutions were incubated at 37° C. Samples were taken after 0, 2, 4, 8, and 24 hours; and 40 μl of 2 M perchlorate, 40 μl of 1% o-phenylenediamine, and 100 μl of 200 μM glyoxal were added to 100 μl of each sample. The mixtures were stirred, and then incubated at 25° C. for one hour.

[4] = Elimination of methylglyoxal from methylglyoxal solutions in the presence of glutathione and glyoxalase I; assay type: biochemical; conditions: 400 μM methylglyoxal, 4 mM glutathione, glyoxalase I 8-80 unit/ml, 37° C., 1 hour; FIG. 2
Description: PBS(-) solutions were prepared, whose methylglyoxal concentration were 400 μM, glutathione concentration 4 mM, and the concentration of an enzyme having glyoxalase I activity were 8, 16, 40, and 80 unit/ml, respectively. The solutions were incubated at 37° C. A commercially available enzyme (Sigma) derived from yeast was used as the glyoxalase I. Samples were taken after 1 hour, and then methylglyoxal was quantified by the same method as in Example 1.

[5] = Dicarbonyl compound elimination in mixed solutions containing three dicarbonyl compounds; assay type: biochemical; conditions: FIG. 4
Description: PBS(-) solutions (pH7. 4) were prepared, whose concentrations of glyoxal, methylglyoxal, and 3-deoxyglucosone were all 200 μM, glutathione concentration were 0, 0.5, 1, or 5 mM, and glyoxalase I concentration were 0, 0.05, 0.1, 0.5, 1, or 2 unit/ml.

[6] = Dicarbonyl compound elimination in solutions separately containing each dicarbonyl compound; assay type: biochemical; conditions: 100 μM dicarbonyl, glutathione 0-10 mM, glyoxalase I 0-10 unit/ml, 37° C., 1 hour; FIG. 5
Description: PBS(-) solutions (pH 7.4) were prepared, whose glyoxal concentration were 100 μM, glutathione concentration 0, 0.1, 1, or 10 mM, and glyoxalase I concentration 0, 0.01, 0.1, 1, or 10 unit/ml. […] The same method was used for methylglyoxal and 3-deoxyglucosone in place of glyoxal.

| Molecule | trapping of carbonyl compounds methylglyoxal and glyoxal [1] | production of AGE in sera [2] | also measured |
| --- | --- | --- | --- |
| N=C(N)NN [aminoguanidine] | efficiently trap carbonyl compounds |  |  |
| CCCCNC(=N)NC(=N)N [buformin] | efficiently trap carbonyl compounds |  |  |
| N[C@@H](CS)C(=O)O [cystein, reference compound] |  | suppressed the production of AGE |  |
| N[C@@H](CCC(=O)N[C@@H](CS)C(=O)NCC(=O)O)C(=O)O [glutathione] |  | suppressed the production of AGE | methylglyoxal trapping (residual rate of methylglyoxal) [3]: trapped by glutathione depending on the concentration of glutathione and incubation time |
| CN(C)C(=N)N=C(N)N [metformin] | efficiently trap carbonyl compounds |  |  |
| glyoxalase I: commercially available enzyme (Sigma) derived from yeast, lactoyl GSH lyase (EC. 4.4.1.5) (protein, UniProt P50107 1-326, looked up) Glyoxalase I: MSTDSTRYPIQIEKASNDPTLLLNHTCLRVKDPARTVKFYTEHFGMKLLSRKDFEEAKFSLYFLSFPKDDIPKNKNGEPDVFSAHGVLELTHNWGTEKNPDYKINNGNEEPHRGFGHICFSVSDINKTCEELESQGVKFKKRLSEGRQKDIAFALGPDGYWIELITYSREGQEYPKGSVGNKFNHTMIRIKNPTRSLEFYQNVLGMKLLRTSEHESAKFTLYFLGYGVPKTDSVFSCESVLELTHNWGTENDPNFHYHNGNSEPQGYGHICISCDDAGALCKEIEVKYGDKIQWSPKFNQGRMKNIAFLKDPDGYSIEVVPHGLIA |  |  | methylglyoxal eliminated [4]: Approximately 99%; concentrations of dicarbonyl compounds in mixed solution ([5]; 200 μM each dicarbonyl, glutathione 0-5 mM, glyoxalase I 0-2 unit/ml, 37° C., 1 hour): Decrease in the concentrations of dicarbonyl compounds was observed; elimination of 3-deoxyglucosone in the mixed solution of three dicarbonyl compounds ([5]; coexistence of methylglyoxal and glyoxal, 200 μM each): decreased; concentrations of dicarbonyl compounds in solutions containing one dicarbonyl compound [6]: concentrations of dicarbonyl compounds decreased |
